According to the NIST ThermoML archive (doi:10.1016/j.jct.2019.03.040):

Assay: molar heat capacity at constant pressure
Details: 101.33 kPa, Liquid, Small sample (50 mg) DSC

CCCOC(=O)CCC(C)=O [propyl levulinate]
Details | molar heat capacity at constant pressure [J/K/mol]
336.54 K | 328.25
337.04 K | 328.57
337.54 K | 328.57
338.04 K | 329.2
338.54 K | 328.89
339.04 K | 329.05
339.54 K | 329.2
340.04 K | 328.89
340.54 K | 329.36
341.04 K | 329.84
341.54 K | 329.99
342.04 K | 329.68
342.54 K | 329.36
343.04 K | 330.31
343.54 K | 330.31
344.04 K | 330.15
344.54 K | 330.15
345.04 K | 330.63
345.54 K | 331.1
346.04 K | 331.1
346.54 K | 330.94
347.04 K | 331.58
347.54 K | 331.58
348.04 K | 331.73
348.54 K | 332.05
349.04 K | 331.89
349.54 K | 332.05
350.04 K | 332.37
350.54 K | 332.68
351.04 K | 333.16
351.54 K | 333
352.04 K | 333
352.54 K | 333.16
353.04 K | 333.95
353.54 K | 333.47
354.04 K | 334.27
354.54 K | 334.27
355.04 K | 334.42
355.54 K | 334.74
356.04 K | 334.27
356.54 K | 334.42
357.04 K | 334.58
357.54 K | 334.58
358.04 K | 335.22
358.54 K | 335.37
359.04 K | 335.85
359.54 K | 335.85
360.04 K | 335.53
360.54 K | 336.01
361.04 K | 336.32
361.54 K | 336.64
362.04 K | 336.16
362.54 K | 336.01
363.04 K | 336.16
363.54 K | 336.64
364.04 K | 337.11
364.54 K | 337.11
365.04 K | 337.11
365.54 K | 337.11
366.04 K | 337.9
366.54 K | 337.9
367.04 K | 337.59
367.54 K | 337.59
368.04 K | 338.06
368.54 K | 338.06
369.04 K | 337.75
369.54 K | 337.9
370.04 K | 338.22
370.54 K | 338.06
371.04 K | 338.54
371.54 K | 338.54
372.04 K | 338.7
372.54 K | 339.49
373.04 K | 339.33
373.54 K | 339.49
374.04 K | 340.12
374.54 K | 340.75
